Measurements taken from patent US8575376B2, “Steroide anionic compounds, method of their production, usage and pharmaceutical preparation involving them” (Ustav Organicke Chemie A Biochemie Akademie Ved Ceske …, priority 2009, dated 2013).

Test system: Long-Evans rats
Test: AAPA task after bilateral NMDA excitotoxic lesion of the hippocampus
Format: in vivo, rat
Method: Neuroprotective action of 3α-substituted derivatives of pregnanolone was tested in the well-established model represented by excitotoxic bilateral lesion of the hippocampus with NMDA, an agonist of NMDA receptors. This model represents a widely-accepted paradigm of excitotoxicity induced experimental disruption of memory functions in laboratory rodents. The model also mimics into some extent the excessive action of glutamate on cells in the hippocampus, which contains abundance of NMDA receptors. The effect of lesions and possible neuroprotective action can be observed at various intervals after treatment both on the histological and behavioral level, provided that a suitable hippocampus-dependent memory task is available. In our studies, we have used a hippocampus-dependent spatial task AAPA (see above), which requires spatial and executive abilities and involves so-called “cognitive coordination” (Wesierska et al., 2005). Again, all manipulations with animals conformed to current legislation and Institutional recommendations on animal care and were approved by ethical-care committee.
In this phase of experiment, we have studied the effect of compound from Example 9 (and relation of this effect to dose) on NMDA excitotoxic hippocampal lesion after various intervals from lesioning. 150 adult male Long-Evans rats (250-350 g) were used in the study. Rats were housed in transparent plastic cages (25×25×40 cm) in air-conditioned animal room with 12/12 h dark/light rhythmicity. All rats had free access to food and water throughout the study.
During surgery, animals were deeply anesthetized by isoflurane inhalation anesthesia (3.5%, driven by air). Initial sedation was pursued in initiation chamber filled with diethyl ether vapor. During whole anesthesia, vital functions of animals were precisely monitored by the person pursuing surgery. After fixation in the stereotaxic apparatus (Kopf Instruments) the skull was exposed and small trephine openings were drilled with micro driller and subsequently, 1 ul of NMDA solution ([…] NMDA in saline buffered with calcium dihydrogenphosphate to pH=7.2) was microinjected into both dorsal hippocampi. The stereotaxic coordinates (AP=4; L=±2.5; DV=4) were measured from a rigorous atlas (Paxinos and Watson, 2005) and later verified from histological examination. Rats were then placed into soft post-surgery boxes. […] Doses of compound from Example 9 were: 0.01 mg/kg, 0.1 mg/kg and 10 mg/kg of b.w. In control groups and lesion-only groups, we applied only saline and NMDA, respectively. Solution of compound from Example 9 (0.01 mg/2 ml, 0.1 mg/2 ml or 10 mg/2 ml dissolved in cyclodextrin) was applied s.c. at a volume of 2 ml/kg.
Prior to behavioral observations, animals were left for 7 days to recover after surgery. After this recovery period, two days (each consisting of two sessions) of AAPA training were conducted. Each rat was initially placed onto rotating (1 rpm) circular arena containing a to-be-avoided sector (60°), fixed in the coordinate frame of the room (Stuchlik et al., 2008). Upon entrance into the prohibited sector, rat was punished by a mild electric footshock (˜0.3 mA] delivered from low-impedance subcutaneous wire to contact between rats paws and grounded floor (with highest voltage drop in rats feet). Rats wore a latex harness on their backs, holding an infrared light-emitting diode (LED), which was sampled by TV camera mounted above the arena and connected to a computer digitizing system (iTrack, Biosignal Group, USA). The shock sector is not directly perceptible for animals and its location can be determined solely by its relationships with distal room landmarks. […] The task is highly dependent upon hippocampus, with unilateral inactivation of this structure leading to avoidance deficit (Cimadevilla et al., 2001). This was the reason why we have selected this task for NMDA-induced impairment and detection of putative neuroprotective action of our compound (Example 9). […]

[1] = 10 mg/kg s.c., 30 min prior to and after lesion, or 120 min after lesion

CC(=O)[C@H]1CC[C@H]2[C@@H]3CC[C@@H]4C[C@H](OC(=O)[C@@H](N)CCC(=O)O)CC[C@]4(C)[C@H]3CC[C@]12C [Example 9, 20-Oxo-5β-pregnan-3α-yl L-glutamyl 1-ester]
number of entrances in AAPA after NMDA lesion (0.01 mg/kg s.c., 30 min after lesion): improved the subsequent performance in the AAPA task
maximum time avoided in AAPA after NMDA lesion (0.01 mg/kg s.c., 30 min after lesion, or 30 min prior to and after lesion): had beneficial effect in lesioned animals
number of entrances in AAPA after NMDA lesion (0.01 mg/kg s.c., 30 min prior to and after lesion): the alleviation was not significant
number of entrances in AAPA after NMDA lesion (0.01 mg/kg s.c., longer intervals from the lesion): exerted no effect after longer intervals from the lesion
maximum time avoided in AAPA after NMDA lesion (0.1 mg/kg s.c.): tended to alleviate the performance of rats compared to lesioned animals without treatment
number of entrances in AAPA after NMDA lesion (0.1 mg/kg s.c., 30 min after lesion): non-significantly improved the behavioral performance
maximum time avoided in AAPA after NMDA lesion [1]: caused a significant improvement of rat performance
number of entrances in AAPA after NMDA lesion [1]: significant protective effect against hippocampal lesion
number of entrances in AAPA after NMDA lesion (10 mg/kg s.c., other delays): No improvement was seen at other delays
